Measurements: PubChem BioAssay AID2454 (Broad Institute, 2010)

Tested on: H4 cells, SNCA 5'UTR luciferase reporter translation
Experiment: inhibitors of SNCA 5'UTR-driven translation, confirmation, luminescence, H4 neuroglioblastoma cells, dose confirmation (AID 2454)

Structure (SMILES): COc1ccc(O)c2c(=O)c3c(OC)cc4c(c3oc12)C1C=COC1O4 (stereo unspecified)
- EC50: 569 nM
